{
  "source": "patent US20220160817A1",
  "about": "“Pharmaceutical composition with improved stability” (Foresee Pharmaceuticals Co., Ltd., priority 2014, published 2022)",
  "type_in_all_cases": "physicochemical",
  "key": {"[1]": {"test": "Octreotide mesylate with excess methane sulfonic acid in solvent with added lactide monomer", "details": "pH of the salt solution 2.4, pharmaceutically acceptable solvent", "source_text": "U.S. Pat. No. 8,343,513 further discloses that in order to reduce the impurities generation, low molecular weight polymers with high acid numbers and significant amount of low pKa acid additives or oligomers have to be used. Such acidic dispersed phases are not suitable for human parenteral use due to tissue irritation from the low pH. […] In fact more impurities are generated for the solution with excess acid than the one without."}, "[2]": {"test": "L-lactide monomer impurity generation with leuprolide mesylate in NMP, HPLC", "details": "NMP with 10% L-lactide, 3 hours at 37° C."}, "[3]": {"test": "FMOC-SER-OH / FMOC-ARG-OH reaction with D,L-lactide monomers in NMP at 25° C., HPLC", "details": "25% D,L-lactide in NMP", "protocol": "All impurity structures identified have polymers reacting with the arginine group of the peptide. In the present invention, it is shown that the conjugates of lactide monomers reacting with the serine group of the peptide are the more significant impurities generated, that were not observed previously. To test the generation of leuprolide conjugates with lactide monomers, FMOC-ARG-OH or FMOC-SER-OH was dissolved in NMP. To this solution D,L-lactide monomers were added. The solution was mixed well by vortexing. 5 uL of the solution was added to an HPLC vial with 0.5 mL of acetonitrile and 0.5 mL stability buffer (0.6% TEA/0.3% H3PO4 in water, pH=3.0). The sample was then analyzed by HPLC. The remaining solutions were stored in a glass vial at 25° C. Samples were taken at specified time points and analyzed by UPLC."}},
  "data": [
    {"compound": "octreotide mesylate", "values": [
      {"measurement": "stability of the peptide with added lactide monomer", "setting": "[1]", "value": "highly unstable"}
    ]},
    {"compound": "leuprolide mesylate [LAMS]", "values": [
      {"measurement": "lactide-related impurity peak shape in chromatogram", "setting": "[2]", "value": "single peak"}
    ]},
    {"compound": "O=C(N[C@@H](CO)C(=O)O)OCC1c2ccccc2-c2ccccc21", "note": "[FMOC-SER-OH]", "values": [
      {"measurement": "impurities generated with D,L-lactide monomers", "setting": "[3]; 3 hours at 25° C.", "value": "very little impurities"},
      {"measurement": "impurities generated with D,L-lactide monomers", "setting": "[3]; 1 day at 25° C.", "value": "significant amount of impurities"}
    ]},
    {"compound": "NC(N)=NCCC[C@H](NC(=O)OCC1c2ccccc2-c2ccccc21)C(=O)O", "note": "[FMOC-ARG-OH]", "values": [
      {"measurement": "impurities generated with D,L-lactide monomers", "setting": "[3]; 1 day at 25° C.", "value": "less than that seen with the serine"}
    ]}
  ]
}
